In patent US11161884B2 (SAVID THERAPEUTICS INC., priority 2014, dated 2021):

Legend:
[1] = tested on: human Burkitt lymphoma Ramos tumor; assay: In vivo imaging, Ramos heterotransplantation model; set-up: species or system nude mice; conditions: pre-mixed with the antibody, intravenous
Protocol: The thus purified Rituximab-scFv-V2122 was preliminarily mixed with Psyche F-IRDye 800 (Compound 44 in Example) dissolved in DMSO (final concentration is ten-fold molar concentration), and incubated on ice for 10 minutes. The buffer was then replaced with Japanese Pharmacopoeia physiological saline (Otsuka Pharmaceutical Co., Ltd.) using Zeba Spin Desalting Column (Thermo Fisher Scientific Inc.).
(§1) Ramos cell suspension and Matrigel Matrix (Corning) were mixed in a ratio of 1:1 (5×10^6 cells/0.1 mL), and 0.1 mL of the mixed liquid was administered subcutaneously in the left side of 5 to 6-week-old female nude mice (Sankyo Labo Service Corporation, Inc.). The mice were bred for several weeks to produce tumor. One week before imaging, the feed was switched to a low fluorescence feed (iVid #1, Oriental Yeast Co., Ltd.) and the breeding was continued. […]
Rituximab-scFv-V2122 antibody (25 μg, 50 μg, 100 μg), preliminarily labeled with fluorescence by reacting it with Psyche F-IRDye 800 (Compound 44 in Example), was intravenously administered to nude mice having established human Burkitt lymphoma Ramos. For investigation into accumulation in tumor, accumulation of IRDye 800 in the tumor was evaluated 2, 24 and 48 hours after the administration, using in vivo photo-imaging instrument Clairvivo OPT plus (Shimadzu Corporation) (FIG. 19).

DLD1 tumor = assay: In vivo imaging, DLD1 heterotransplantation model; set-up: species or system nude mice; conditions: pre-mixed with the antibody, intravenous
Protocol: The thus purified anti-epiregulin scFv-V2122 was mixed with Psyche F-IRDye 800 (Compound 44 in Example) dissolved in DMSO (final concentration was ten-fold molar concentration), and the mixture was incubated on ice for 10 minutes. The buffer was then replaced with Japanese Pharmacopoeia physiological saline (Otsuka Pharmaceutical Co., Ltd.) using Zeba Spin Desalting Column (Thermo Fisher Scientific Inc.) and was stored under cooling. Epiregulin IgG was labeled using ICG Labeling Kit-NH2 (Dojindo Laboratories).
as §1, with “Suspension liquid of human colorectal cancer-derived DLD1” for “Ramos”, “cell” for “cell suspension”
Anti-epiregulin scFv-V2122 antibody (25 μg, 50 μg, 100 μg) preliminarily labeled with fluorescence by allowing it to react with Psyche F-IRDye 800 (Compound 44 in Example), or fluorescent-labeled epiregulin IgG (50 μg) was intravenously administered to nude mice having established DLD1 tumor. […]

Rituximab-scFv-V2122 = assay: Flow cytometry: binding of FITC-labeled compound to Rituximab-scFv-V2122 on RAMOS cell; type: cell-based; conditions: RAMOS cells pre-incubated with Rituximab-scFv-V2122; compound 3 nM, 10 nM, 30 nM
Protocol: The thus refolded and purified Rituximab-scFv-V2122 was evaluated regarding binding potential with RAMOS (human Burkitt lymphoma) cell (JCRB Cell Bank), which is a CD20 positive cell. More specifically, Rituximab-scFv-V2122 was diluted with PBS into three concentrations (0.05, 0.5, 5 μg/mL). 1×10^6 cells were placed in a 1.5 mL tube, centrifuged at 400×g for 4 minutes, and the supernatant was discarded to collect the cells. The collected cells were added with 100 μL of the diluted Rituximab-scFv-V2122, mixed well, and then incubated on ice for 30 minutes. The content was centrifuged again, the supernatant was discarded, added with 1 mL of PBS to wash the cells, and the cells were then collected. […] After the incubation, the content was centrifuged again, the supernatant was discarded, added with 1 mL of PBS to wash the cells, and the cells were then collected. The collected cells were suspended in 500 μL of PBS, and measured on a flow cytometer (guava easyCyte Single System; Merck Millipore).

V2122 [2] = target: T1, V2122 (Streptomyces avidinii, UniProt P22629, E125D/E140N/N47D/N73G/R108K/R127K/S51D/S69N/Y107S/Y46S); assay: SPR analysis of affinity between V2122 and compound; type: binding
T1 construct: T7-Tag; made in house
T1 sequence (P22629 37-163 Y46S/N47D/S51D/S69N/N73G/Y107S/R108K/E125D/R127K/E140N): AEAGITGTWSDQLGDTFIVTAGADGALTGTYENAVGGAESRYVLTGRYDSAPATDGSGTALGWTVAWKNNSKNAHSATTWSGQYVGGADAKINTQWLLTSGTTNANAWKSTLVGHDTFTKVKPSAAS
Protocol: Interaction of V2122, which is a LISA314 modified protein purified as described above, with Compound C was investigated by surface plasmon resonance (SPR). More specifically, using Biacore T200 (GE Healthcare BioScience Corp.) as a measuring instrument, and Sensor Chip NTA (GE Healthcare BioScience Corp.) as a sensor chip, the protein was immobilized on the sensor chip by way of His-Tag having been fused to the core protein. The running buffer was prepared using HBS-P(+), as described in the manual. A two-fold dilution series was prepared in nine steps by diluting a 1600 nM solution using the running buffer. The affinity was measured in the kinetics mode, and acquired data was subjected to equilibrium analysis using Biacore T200 Evaluation Software to determine the affinity.

V2122 [3] = target: T1, V2122; assay: ITC binding analysis of V2122 and compounds; conditions: 25 μM V2122, PBS, 25° C.
Protocol: Microcal iTC200 (MicroCal, Northampton, Mass.) was used for the measurement.
For the measurement, concentration of the stock solutions was adjusted to a ten-fold concentration of V2122 to be measured. Into a cell of a calorimeter, 25 μM of V2122 was placed, and each solution was added dropwise at a stirring speed of 1000 rpm at 25° C. Obtained data was analyzed using ORIGIN, and the titration curve was fitted based on the one-site binding isotherm.

`COC(=O)[C@H](CCCCNC(=O)c1cc(NC(=O)NCCOCCOCCNC(=O)CCCCC[N+]2=C(/C=C/C3=C(Oc4ccc(S(=O)(=O)O)cc4)C(=C/C=C4/N(CCCCS(=O)(=O)O)c5ccc(S(=O)(=O)O)cc5C4(C)C)/CCC3)C(C)(C)c3cc(S(=O)(=O)[O-])ccc32)cc(C(=O)NCCCC[C@H](NC(=O)CCCC[C@@H]2SC[C@@H]3NC(=N)N[C@@H]32)C(=O)OC)c1)NC(=O)CCCC[C@@H]1SC[C@@H]2NC(=N)N[C@@H]21` [Compound 44, 1-(1-((3,5-Bis(((S)-5-(5-((3aS,4S,6aR)-2-iminohexahydro-1H-thieno[3,4-d]imidazole-4-yl)pentanamido)-6-methoxy-6-oxohexyl)carbamoyl)phenyl)amino)-1,12-dioxo-5,8-dioxa-2,11-diazaheptadecane-17-yl)-2-((E)-2-((E)-3-(2-((E)-3,3-dimethyl-5-sulfo-1-(4-sulfobutyl)indoline-2-ilidene)ethylidene)-2-(4-sulfophenoxy)cyclohex-1-ene-1-yl)vinyl)-3,3-dimethyl-3H-indol-1-ium-5-sulfonate] was tested, and the “binding with Rituximab-scFv-V2122 antibody in vivo” value [1] was “remain bound in vivo” and the “binding with anti-epiregulin scFv-V2122 antibody in vivo” value (DLD1 tumor) was “remain bound in vivo”.

In the case of `N=C1N[C@H]2[C@H](CS[C@H]2CCCCC(=O)NCCCCCC(=O)Nc2cc(NC(=O)CCCCCNC(=O)CCCC[C@@H]3SC[C@@H]4NC(=N)N[C@@H]43)cc(C(=O)NCCOCCOCCNC(=S)Nc3ccc4c(c3)C(=O)OC43c4ccc(O)cc4Oc4cc(O)ccc43)c2)N1` [FITC-labeled Compound B], the “binding with Rituximab-scFv-V2122, shifts of fluorescence intensity” value (Rituximab-scFv-V2122) is reported as “concentration-dependent shifts of fluorescence intensity were also confirmed”.

For `N=C1N[C@H]2[C@H](CS[C@H]2CCCCC(=O)NCCCCCC(=O)NCCNC(=O)CCCCCNC(=O)CCCC[C@@H]2SC[C@@H]3NC(=N)N[C@@H]32)N1` [Compound 7, (3aS,3a′S,4S,4′S,6aR,6a′R)-4,4′-(5,12,17,24-Tetraoxo-6,13,16,23-tetraazaoctacosane-1,28-diyl)bis[tetrahydro-1H-thieno[3,4-d]imidazole-2(3H)-iminium] di(2,2,2-trifluoroacetate)], the Kd (V2122 [2]) was 3.15 nM and the “interaction with V2122 measured by ITC” value (V2122 [3]) was “exothermic, suggesting a strong binding”.

For `O=C(O)CCCC[C@@H]1SC[C@@H]2NC(=O)N[C@@H]21` [biotin, reference compound], the “interaction with V2122 measured by ITC” value (V2122 [3]) was “non-interactive”.
